Laboratory results published in paper PMC6594577, “Identifying small molecule probes of ENTPD5 through high throughput screening” (PLoS ONE, 2019).

How the values were obtained:
[1] = target: T1, B.ENTPD5 (human ENTPD5 44–428) (Homo sapiens, UniProt O75356); test: coupled enzyme (ENTPD5/UMPK/luciferase) HTS assay; format: biochemical; settings: for inhibition at 20 µM: HTS, 20 μM compound, duplicate, read-out: Percent ENTPD5 inhibition; for IC50: compounds at 5, 10, 20 and 40 μM, coupled enzyme HTS assay
T1 construct: bacterial codon-optimized human ENTPD5 44–428 (B.ENTPD5); His8 (C); made in house; host or cells: E. coli C41(DE3)
T1 sequence (O75356 44-428): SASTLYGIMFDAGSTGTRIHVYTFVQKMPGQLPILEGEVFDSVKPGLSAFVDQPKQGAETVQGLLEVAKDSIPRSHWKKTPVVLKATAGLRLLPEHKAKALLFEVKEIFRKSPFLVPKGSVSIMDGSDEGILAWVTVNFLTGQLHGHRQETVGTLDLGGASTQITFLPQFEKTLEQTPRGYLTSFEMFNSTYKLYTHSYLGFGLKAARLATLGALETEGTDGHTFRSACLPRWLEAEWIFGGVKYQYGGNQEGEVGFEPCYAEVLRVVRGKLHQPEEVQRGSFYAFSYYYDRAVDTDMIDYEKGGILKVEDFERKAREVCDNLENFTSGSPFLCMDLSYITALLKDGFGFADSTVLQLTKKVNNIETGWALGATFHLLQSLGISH
Method: Stocks of purified B.ENTPD5, UMPK, and luciferase were diluted to 0.4 mg/mL, 1.2 mg/mL, 4.5 mg/mL, respectively, in 250 mM NaCl, 25 mM Tris-HCl pH 8.5, 5 mM MgCl2, 0.1 mg/mL BSA, and 5 mM DTT and flash frozen. To prepare enzyme mix solution for HTS, ENTPD5 (1 ng/μL final concentration) and UMPK (3.5 ng/μL) were diluted in HTS buffer (250 mM NaCl, 25 mM Tris-HCl pH 7.7, 5 mM MgCl2, 5 mM DTT, 0.1 mg/mL BSA, and 0.01% Triton X-100). An ENTPD5 null mix was made as above without ENTPD5 to provide maximal signal mimicking 100% inhibition. Substrate mix solution consisted of ATP (625 μM) and UDP (150 μM) in HTS buffer. Developer solution consisted of Luciferase (50 ng/μL) and D-luciferin (1.6 mM) in HTS buffer. All solutions were stored at 4°C, and equilibrated to room temperature prior to screening. All steps of ENTPD5 HTS were performed at room temperature in duplicate 384-well plates. For each run, 40 μL of enzyme solution (or ENTPD5 null mix) was added to each well of a 384 well plate. 0.1 μL of 10 mM compound (in 100% DMSO) from a 25,000 subset of the Chembridge DiverSet library or DMSO alone were added to wells by pin tool (V&P Scientific). Following a 10-minute incubation, the reaction was initiated with 10 μL of substrate mix (final concentrations: 40 ng/50 μL ENTPD5, 140 ng/50 μL UMPK, 125 μM ATP, 30 μM UDP, 20 μM test compound). Assay plates were shaken at 1500 rpm for 30 seconds and then incubated for 1h. Following incubation, 10 μL of developer solution was added to each well (final concentrations: 500 ng/60 μL luciferase, 266 μM D-luciferin). The plate was shaken for 30 seconds and incubated for 30 minutes. Luminescence readings were performed on a Tecan Infinite […] with automatic attenuation settings and 100 ms integration time. Hits and hit analogs were (re)purchased from Chembridge for SAR studies. Compounds were assayed at 5 μM, 10 μM, 20 μM, and 40 μM using the assay described above. To discover ENTPD5 inhibitors, a coupled enzyme assay was developed for high-throughput screening. The ENTPD5 reaction (UDP ➔ UMP + Pi) was coupled with uridine monophosphate kinase's (UMPK) reaction with UMP (UMP + ATP ➔ UDP + ADP) to create a futile catalytic cycle consuming ATP (Fig 3A). After one hour, the residual ATP was measured with firefly luciferase. UMPK concentrations were chosen to ensure ENTPD5, not UMPK, was rate-limiting. The ATP concentration was chosen to maximize signal with no ENTPD5 present, and the reaction time was optimized to remain in the linear range of the assay. Initial UDP concentration was chosen to allow for multiple turnover events on a single molecule in the cycle. Due to the availability of higher yields of the bacterially produced enzyme, B.ENTPD5 was used for HTS and subsequent structure activity relationship studies. 21,000 compounds were screened in duplicate at 20 μM. The average Z' value of the 132-plate screen was 0.73, indicating a robust assay. Five compounds producing >25% reproducible inhibition of ENTPD5 activity were selected for further analysis (0.02% hit rate) (Fig 3B and 3C).

I.ENTPD5 = target: T2, I.ENTPD5 (Homo sapiens, UniProt O75356); test: Malachite Green (MG) assay for free phosphate; format: biochemical
T2 construct: His8 (C); made in house; host or cells: Hi-5 insect cells (baculovirus amplified in SF9)
T2 sequence (O75356 44-428): T1 sequence (O75356 44-428)
Method: Malachite Green (MG) assay for free phosphate was used to directly test ENTPD5 activity. Standard curves for each preparation of malachite green were generated using known amounts of free phosphate. Reactions were carried out at room temperature in 1-mL cuvettes and OD 630 nm measurements were performed on a Nanodrop 2000c. ENTPD5 assays were initiated by adding UDP (100 μM final concentration) to a cuvette containing 800 μL of ENTPD5 (10 ng) in reaction buffer (250 mM NaCl, 5 mM MgCl2, 25 mM Tris-HCl pH 8.5). After 5 minutes, the reaction was quenched with 200 μL of MG buffer (13.1% (v/v) Concentrated sulfuric acid, 2.64 mM malachite green, 1.4% (w/v) ammonium molybdate, and 0.17% (v/v) Tween 20) and mixed by pipet. The OD 630 nm was measured after an additional 5-minute incubation. IC50 values were calculated by GraphPad Prism 6 using sigmoidal interpolation model with 95% confidence intervals. Using I.ENTPD5, the five hits compounds were validated in the malachite green (MG) assay, which directly measures free phosphate, a product of ENTPD5 activity.

LNCaP cells = test: Growth inhibition assay, LNCaP; format: cell-based; settings: Homo sapiens, 48 h, 48h treatment, cell count normalized to DMSO
Method: LNCaP (ATCC CFL-1740), DU-145 (ATCC HTB-81), and PC3 (ATCC CRL-1435) cell lines were cultivated in a humid atmosphere (5% CO2, 37°C) using RPMI 1640 with L-glutamine (10-040-CV Corning) media supplemented with 10% FBS (SH30910.03 Hyclone) and 1x penicillin-streptomycin solution (Invitrogen). RWPE-1 (ATCC CRL-11609) was cultivated in a humid atmosphere (5% CO2, 37°C) using Keratinocyte Serum Free Medium (K-SFM Kit 17005–042 GIBCO) supplemented with bovine pituitary extract, epidermal growth factor (provided with K-SFM Kit), and 1x penicillin-streptomycin solution (Invitrogen). All cell lines were analyzed by STR (Short Tandem Repeat) and confirmed to match to corresponding STR profile data from the Global Bioresource Center ATCC or ExPASy Cellosaurus database. All cell lines were verified to be mycoplasma free.
5,000 cells were plated on day 0 in a 96-well plate. On day 1, before treatment, each well was imaged and direct cell counting was performed using a Celigo S (Nexcelom) imager and automatic cell counting software provided with the instrument. Compounds were added to final concentrations of 0.15 μM- 20 μM. 48 hours after treatment, wells were re-imaged and counted using the pre-treatment counting procedure. Growth was reported as the fold increase over the baseline measurement and normalized to DMSO controls. Experiments were performed in triplicate, in three separate experiments. […]

[2] = system: O-glycan levels in DU145 cells; test: Western blot for total O-glycosylation, DU145; format: cell-based; settings: DU145, 10 μM, 24h, immunoblot
Method: (§1) LNCaP, DU145, PC3, and RWPE-1 cells were treated with 10 μM compound or DMSO control. 24h post-treatment, cells were washed with ice cold PBS, scraped, pelleted and stored at -80°C until use. Frozen cell pellets were lysed with lysis buffer consisting of 20 mM HEPES pH. 7.4, 150 mM NaCl, 1% Triton X-100, 1 mM EGTA, 1 mM EDTA, 10 mM sodium pyrophosphate, 100 mM NaF, 5 mM iodoacetic acid, 20 nM okadaic acid, 0.2 mM phenylmethylsulfonyl flouride (PMSF), and complete protease inhibitor cocktail tablets (Roche Diagnostics). Samples containing 50 μg of protein were suspended in SDS loading buffer, separated on 4–12% SDS polyacrylamide gels (GenScript #M41215) and electrotransferred to PVDF membranes (Millipore Immobilon-FL #IPFL00010). Precision Plus Protein Standards all blue (Bio-Rad 161–0373) were included as molecular weight markers. Immunoblotting was performed using standard methods, with TBS-T and TBS-T with 5% BSA as the wash and blocking/primary antibody dilution solutions, respectively. Total protein was measured with Ponceau-S staining prior to probing with antibodies. Membranes were incubated overnight at 4°C with primary antibodies diluted 1:1000 unless noted otherwise. […] Western blot quantification was normalized to total protein levels and analyzed in ImageStudio (LI-COR).

[3] = system: O-glycan levels in LNCaP cells; test: Western blot for total O-glycosylation, LNCaP; format: cell-based; settings: 10 μM, 24h, immunoblot
Method: as §1

[4] = substrate UDP, purified I.ENTPD5, Michaelis-Menten

SMILES	inhibition at 20 µM [1]	IC50 [1]	further results
O=S(=O)(Nc1ccc(O)c(-c2c(O)ccc3ccccc23)c1)c1ccc(Cl)cc1 [Compound 2a]	35%	6.7 ± 0.7 µM	inhibition of I.ENTPD5 (hit validation) (I.ENTPD5; MG assay): dose-dependent inhibition
Cc1cc(C)c(C)c(S(=O)(=O)Nc2ccc(O)c(-c3c(O)ccc4ccccc34)c2)c1C [Compound 2b]	48%	3.7 ± 0.4 µM	inhibition of I.ENTPD5 (hit validation) (I.ENTPD5; MG assay): dose-dependent inhibition
O=S(=O)(Nc1ccc(O)c(-c2c(O)ccc3ccccc23)c1)c1ccccc1 [Compound 2c]	–	6.8 ± 1 µM	–
Cc1ccc(S(=O)(=O)Nc2ccc(O)c(-c3c(O)ccc4ccccc34)c2)cc1 [Compound 2d]	–	7.1 ± 1.6 µM	–
CCc1ccc(S(=O)(=O)Nc2ccc(O)c(-c3c(O)ccc4ccccc34)c2)cc1 [Compound 2e]	–	4.3 ± 2.2 µM	–
CC(C)(C)c1ccc(S(=O)(=O)Nc2ccc(O)c(-c3c(O)ccc4ccccc34)c2)cc1 [Compound 2f]	–	–	EC50 (LNCaP cells): > 10 µM; O-glycan level [2]: inability of compound 2f to reduce O-glycan levels; O-glycan level [3]: inability of compound 2f to reduce O-glycan levels; IC50 (I.ENTPD5; MG assay, expanded concentration range, 100 μM UDP): 1540 nM
O=c1ccn([C@@H]2O[C@H](COP(=O)(O)OP(=O)(O)O)[C@@H](O)[C@H]2O)c(=O)[nH]1 [UDP, reference compound]	–	–	Km (I.ENTPD5; [4]): 480 ± 111 µM; kcat (I.ENTPD5; [4]): 783 ± 68 s⁻¹

Further lines, with some results ahead:

inhibition at 20 µM [1]	IC50 [1]	SMILES	further results
–	8.3 ± 1 µM	O=S(=O)(Nc1ccc(O)c(-c2c(O)ccc3ccccc23)c1)c1ccc(Br)cc1 [Compound 2g]	–
–	> 100 µM	Cc1ccc(S(=O)(=O)Nc2cc(-c3c(O)ccc4ccccc34)c(O)c3ccccc23)cc1 [Compound 2h]	–
–	> 100 µM	O=S(=O)(Nc1cc(-c2c(O)ccc3ccccc23)c(O)c2ccccc12)c1ccc(Cl)cc1 [Compound 2i]	–
47%	–	CCC(=O)N1c2ccccc2C(N(C(=O)c2ccccc2)c2ccccc2)CC1C (stereo not drawn) [Compound 3]	–
28%	–	O=C1NC(c2ccccc2OCc2ccccc2)Nc2ccccc21 (stereo not drawn) [Compound 4]	inhibition of I.ENTPD5 (hit validation) (I.ENTPD5; MG assay): dose-dependent inhibition
